# pIC50: −log10 of the molar value.
# Legend:
# [1] = system: T47D (breast ductal carcinoma); assay: alamarBlue anti-proliferation assay, Breast T47D; assay type: cell-based, human; details: 72 hour
# Procedure: (§1) The growth effects of compound 29 was tested on 8 different human tumour cell lines. Changes in cell proliferation based on the ability of viable cells to cause alamar Blue to change from its oxidized (non-fluorescent, blue) to a reduced (fluorescent, red) form were evaluated. With the results obtained from the alamarBlue reaction, cell proliferation was quantified and metabolic activity of viable cells examined. Test compound, (29), was tested for its effect on the proliferation of 8 different human tumor cell lines at five final assay concentrations from 100 to 0.01 μM through serial 10-fold dilutions, respectively.
# (§2) Compound 29 was dissolved in 100% ethanol and then diluted with Phosphate Buffer Saline (PBS, pH=7.4) to obtain initial working solutions of 10000, 1000, 100, 10 and 1 μM in 40% ethanol. In testing, 100-fold dilution was made in culture media to get final assay concentrations of 100, 10, 1, 0.1 and 0.01 μM in 0.4% of ethanol.
# (§3) Aliquots of 100 μl of cell suspension (about 2.5-5×10^3/well) were placed in 96well microtiter plates in an atmosphere of 5% CO2 at 37° C. After 24 hours, 100 μl of growth medium, 2 μL of test solution or vehicle (40% DMSO), was added respectively per well in duplicate for an additional 72 hour incubation. Thus, the final concentration of DMSO was 0.4%. The test compound was evaluated at concentrations of 100, 10, 1, 0.1 and 0.01 μM. At the end of the incubation, 20 μL of alamarBlue 75% reagent was added to each well for another 6-hour incubation before detection of cell viability by fluorescent intensity. Fluorescent intensity was measured using a Spectrafluor Plus plate reader with excitation at 530 nm and emission at 590 nm.
# (§4) PG(%)=100×(Mean Ftest−Mean Ftime0)/(Mean Fctrl−Mean Ftime0).
# (§5) PG(%)=100×(Mean Ftest−Mean Ftime0)/(Mean Ftime0−Mean Fblank)
# (§6) A decrease of 50% or more (≧50%) in fluorescent intensity relative to vehicle-treated control indicated significant cytostatic or cytotoxic activity, and a semi-quantitative IC50, TGI and LC50 were then determined by nonlinear regression using GraphPad Prism (GraphPad Software, U.S.A.).
# (§7) IC50 (50% Inhibition Concentration): Test Compound concentration at which the increase from time0 in the number or mass of treated cells was only 50% as much as the corresponding increase in the vehicle-control at the end of experiment.
# (§8) TGI (Total Growth Inhibition): Test compound concentration at which the number or mass of treated cells at the end of the experiment was equal to that at time0.
# (§9) LC50 (50% Lethal Concentration): Test compound concentration at which the number of mass of treated cells at the end of the experiment was half that at time0.
# [2] = system: HepG2 (hepatoblastoma, liver); assay: alamarBlue anti-proliferation assay, Liver HepG2; assay type: cell-based, human; details: for Percent Growth (Mean ± SEM, n = 2): 72 hour
# Procedure: as §1, §2, §3, §4, §5, §6, §7, §8, §9
# [3] = system: U-937 (histiocytic lymphoma); assay: alamarBlue anti-proliferation assay, Lymphoma U-937; assay type: cell-based, human; details: for Percent Growth (Mean ± SEM, n = 2): 72 hour
# Procedure: as §1, §2, §3, §4, §5, §6, §7, §8, §9
# [4] = system: MCF-7 (breast adenocarcinoma); assay: alamarBlue anti-proliferation assay, Breast MCF-7; assay type: cell-based, human; details: for Percent Growth (Mean ± SEM, n = 2): 72 hour
# Procedure: as §1, §2, §3, §4, §5, §6, §7, §8, §9
# [5] = system: HT-29 (human colon adenocarcinoma); assay: Growth inhibition of tumor cell line HT-29 (Table 1); assay type: cell-based; details: 6 day drug exposure; columns A/B = scaffold type
# P-388 (murine leukemia) = assay: Growth inhibition of tumor cell line P-388 (Table 1); assay type: cell-based; details: 3 day drug exposure; columns A/B = scaffold type
# PC-6 (lung carcinoma) = assay: alamarBlue anti-proliferation assay, Lung PC-6; assay type: cell-based, human; details: for Percent Growth (Mean ± SEM, n = 2): 72 hour
# Procedure: as §1, §2, §3, §4, §5, §6, §7, §8, §9
# [6] = system: PC-3 (prostate adenocarcinoma); assay: alamarBlue anti-proliferation assay, Prostate PC-3; assay type: cell-based, human; details: for Percent Growth (Mean ± SEM, n = 2): 72 hour
# Procedure: as §1, §2, §3, §4, §5, §6, §7, §8, §9
# [7] = system: HT-29 (colon adenocarcinoma); assay: alamarBlue anti-proliferation assay, Colon HT-29; assay type: cell-based, human; details: for Percent Growth (Mean ± SEM, n = 2): 72 hour
# Procedure: as §1, §2, §3, §4, §5, §6, §7, §8, §9
# [8] = system: KB-16 (human nasopharyngeal carcinoma); assay: Growth inhibition of tumor cell line KB-16 (Table 1); assay type: cell-based; details: 3 day drug exposure; columns A/B = scaffold type
# [9] = system: A-549 (human lung adenocarcinoma); assay: Growth inhibition of tumor cell line A-549 (Table 1); assay type: cell-based; details: 6 day drug exposure; columns A/B = scaffold type
# [10] = system: HL-60 (promyelocytic leukemia); assay: alamarBlue anti-proliferation assay, Leukemia HL-60; assay type: cell-based, human; details: for Percent Growth (Mean ± SEM, n = 2): 72 hour
# Procedure: as §1, §2, §3, §4, §5, §6, §7, §8, §9
smiles,measurement,setting,value
"CCn1c2ccccc2c2cc(C3=NCCc4c3[nH]c3ccccc43)ccc21 [Compound 29, 1-(9′-Ethyl-3′-carbazole)-3,4-dihydro-β-carboline]","Percent Growth (Mean ± SEM, n = 2)",[1]; 0.01 μM,92 ± 2%
same,"Percent Growth (Mean ± SEM, n = 2)",[1]; 0.1 μM,88 ± 6%
same,"Percent Growth (Mean ± SEM, n = 2)",[1]; 1 μM,89 ± 3%
same,"Percent Growth (Mean ± SEM, n = 2)",[1]; 10 μM,25 ± 3%
same,"Percent Growth (Mean ± SEM, n = 2)",[1]; 100 μM,−100 ± 4%
same,Estimated TGI (Total Growth Inhibition),[1]; semi-quantitative,10.8 µM
same,pIC50,"[1]; semi-quantitative, read-out: Estimated IC50 (50% Inhibition Concentration)",5.22
same,LC50 (50% lethal concentration),"[1]; semi-quantitative, read-out: Estimated cIC50 (footnote c: LC50, 50% Lethal Concentration)",19.2 µM
same,"Percent Growth (Mean ± SEM, n = 2)","[2]; HepG2, 0.01 μM",106 ± 2%
same,"Percent Growth (Mean ± SEM, n = 2)","[2]; HepG2, 0.1 μM",96 ± 11%
same,"Percent Growth (Mean ± SEM, n = 2)","[2]; HepG2, 1 μM",81 ± 4%
same,"Percent Growth (Mean ± SEM, n = 2)","[2]; HepG2, 10 μM",−27 ± 7%
same,"Percent Growth (Mean ± SEM, n = 2)","[2]; HepG2, 100 μM",−100 ± 3%
same,Estimated TGI (Total Growth Inhibition),"[2]; HepG2, 72 hour, semi-quantitative",5.2 µM
same,pIC50,"[2]; HepG2, 72 hour, semi-quantitative, read-out: Estimated IC50 (50% Inhibition Concentration)",5.66
same,LC50 (50% lethal concentration),"[2]; HepG2, 72 hour, semi-quantitative, read-out: Estimated cIC50 (footnote c: LC50, 50% Lethal Concentration)",12.5 µM
same,"Percent Growth (Mean ± SEM, n = 2)","[3]; U-937, 0.01 μM",103 ± 3%
same,"Percent Growth (Mean ± SEM, n = 2)","[3]; U-937, 0.1 μM",97 ± 6%
same,"Percent Growth (Mean ± SEM, n = 2)","[3]; U-937, 1 μM",90 ± 2%
same,"Percent Growth (Mean ± SEM, n = 2)","[3]; U-937, 10 μM",−3 ± 4%
same,"Percent Growth (Mean ± SEM, n = 2)","[3]; U-937, 100 μM",−93 ± 0%
same,Estimated TGI (Total Growth Inhibition),"[3]; U-937, 72 hour, semi-quantitative",7.9 µM
same,pIC50,"[3]; U-937, 72 hour, semi-quantitative, read-out: Estimated IC50 (50% Inhibition Concentration)",5.46
same,LC50 (50% lethal concentration),"[3]; U-937, 72 hour, semi-quantitative, read-out: Estimated cIC50 (footnote c: LC50, 50% Lethal Concentration)",18.3 µM
same,"Percent Growth (Mean ± SEM, n = 2)","[4]; MCF-7, 0.01 μM",97 ± 1%
same,"Percent Growth (Mean ± SEM, n = 2)","[4]; MCF-7, 0.1 μM",94 ± 7%
same,"Percent Growth (Mean ± SEM, n = 2)","[4]; MCF-7, 1 μM",85 ± 8%
same,"Percent Growth (Mean ± SEM, n = 2)","[4]; MCF-7, 10 μM",−48 ± 11%
same,"Percent Growth (Mean ± SEM, n = 2)","[4]; MCF-7, 100 μM",−100 ± 0%
same,Estimated TGI (Total Growth Inhibition),"[4]; MCF-7, 72 hour, semi-quantitative",4.2 µM
same,pIC50,"[4]; MCF-7, 72 hour, semi-quantitative, read-out: Estimated IC50 (50% Inhibition Concentration)",5.70
same,LC50 (50% lethal concentration),"[4]; MCF-7, 72 hour, semi-quantitative, read-out: Estimated cIC50 (footnote c: LC50, 50% Lethal Concentration)",8.3 µM
same,"IC50, concentration inhibiting 50% of the growth of HT-29",[5],<1 ng/mL
same,"IC50, concentration inhibiting 50% of the growth of P-388",P-388 (murine leukemia),< 1 ng/mL
same,"Percent Growth (Mean ± SEM, n = 2)","PC-6 (lung carcinoma); PC-6, 0.01 μM",101 ± 1%
same,"Percent Growth (Mean ± SEM, n = 2)","PC-6 (lung carcinoma); PC-6, 0.1 μM",97 ± 5%
same,"Percent Growth (Mean ± SEM, n = 2)","PC-6 (lung carcinoma); PC-6, 1 μM",95 ± 5%
same,"Percent Growth (Mean ± SEM, n = 2)","PC-6 (lung carcinoma); PC-6, 10 μM",24 ± 2%
same,"Percent Growth (Mean ± SEM, n = 2)","PC-6 (lung carcinoma); PC-6, 100 μM",−79 ± 11%
same,Estimated TGI (Total Growth Inhibition),"PC-6 (lung carcinoma); PC-6, 72 hour, semi-quantitative",12.5 µM
same,pIC50,"PC-6 (lung carcinoma); PC-6, 72 hour, semi-quantitative, read-out: Estimated IC50 (50% Inhibition Concentration)",5.30
same,LC50 (50% lethal concentration),"PC-6 (lung carcinoma); PC-6, 72 hour, semi-quantitative, read-out: Estimated cIC50 (footnote c: LC50, 50% Lethal Concentration)",32.5 µM
same,"Percent Growth (Mean ± SEM, n = 2)","[6]; PC-3, 0.01 μM",100 ± 1%
same,"Percent Growth (Mean ± SEM, n = 2)","[6]; PC-3, 0.1 μM",94 ± 3%
same,"Percent Growth (Mean ± SEM, n = 2)","[6]; PC-3, 1 μM",82 ± 4%
same,"Percent Growth (Mean ± SEM, n = 2)","[6]; PC-3, 10 μM",−17 ± 9%
same,"Percent Growth (Mean ± SEM, n = 2)","[6]; PC-3, 100 μM",−93 ± 1%
same,Estimated TGI (Total Growth Inhibition),"[6]; PC-3, 72 hour, semi-quantitative",6.2 µM
same,pIC50,"[6]; PC-3, 72 hour, semi-quantitative, read-out: Estimated IC50 (50% Inhibition Concentration)",5.60
same,LC50 (50% lethal concentration),"[6]; PC-3, 72 hour, semi-quantitative, read-out: Estimated cIC50 (footnote c: LC50, 50% Lethal Concentration)",15 µM
same,"Percent Growth (Mean ± SEM, n = 2)","[7]; HT-29, 0.01 μM",97 ± 4%
same,"Percent Growth (Mean ± SEM, n = 2)","[7]; HT-29, 0.1 μM",101 ± 8%
same,"Percent Growth (Mean ± SEM, n = 2)","[7]; HT-29, 1 μM",85 ± 3%
same,"Percent Growth (Mean ± SEM, n = 2)","[7]; HT-29, 10 μM",−30 ± 15%
same,"Percent Growth (Mean ± SEM, n = 2)","[7]; HT-29, 100 μM",−94 ± 3%
same,Estimated TGI (Total Growth Inhibition),"[7]; HT-29, 72 hour, semi-quantitative",5.2 µM
same,pIC50,"[7]; HT-29, 72 hour, semi-quantitative, read-out: Estimated IC50 (50% Inhibition Concentration)",5.64
same,LC50 (50% lethal concentration),"[7]; HT-29, 72 hour, semi-quantitative, read-out: Estimated cIC50 (footnote c: LC50, 50% Lethal Concentration)",11.7 µM
same,"IC50, concentration inhibiting 50% of the growth of KB-16",[8],<1 ng/mL
same,"IC50, concentration inhibiting 50% of the growth of A-549",[9],<1 ng/mL
same,"Percent Growth (Mean ± SEM, n = 2)","[10]; HL-60, 0.01 μM",99 ± 2%
same,"Percent Growth (Mean ± SEM, n = 2)","[10]; HL-60, 0.1 μM",90 ± 6%
same,"Percent Growth (Mean ± SEM, n = 2)","[10]; HL-60, 1 μM",73 ± 5%
same,"Percent Growth (Mean ± SEM, n = 2)","[10]; HL-60, 10 μM",9 ± 3%
same,"Percent Growth (Mean ± SEM, n = 2)","[10]; HL-60, 100 μM",−100 ± 2%
same,Estimated TGI (Total Growth Inhibition),"[10]; HL-60, 72 hour, semi-quantitative",8.3 µM
same,pIC50,"[10]; HL-60, 72 hour, semi-quantitative, read-out: Estimated IC50 (50% Inhibition Concentration)",5.49
same,LC50 (50% lethal concentration),"[10]; HL-60, 72 hour, semi-quantitative, read-out: Estimated cIC50 (footnote c: LC50, 50% Lethal Concentration)",22 µM
